Measured values published in patent publication US6420412B2, “Eprosartan dihydate and a process for its production and formulation” (SmithKline Beecham Corporation, priority 1996, dated 2002).

Key:
Format in all cases: physicochemical
[1] = Moisture uptake and hydrate conversion on storage at high humidity
Procedure: (§1) Eprosartan is anhydrous, and, by itself, is stable at ambient temperature and humidity, as well as at accelerated conditions (30° C./79% RH or 40° C./75% RH for up to 6 months). […] In the former case where the hydrate is obtained by moistening the drug substance, the hydrated form is not stable, and is generally converted back into the anhydrous form during drying.

[2] = Storage stability of the drug substance
Procedure: as §1

[3] = Compactibility in the solid dosage form; conditions: compared to the corresponding anhydrous form

Structure (SMILES) | conversion of solid form on storage ([1]; moistened then stored in closed container, or dry powder at relative humidity of 98% or higher, ambient or higher temperatures, 8 days or longer) | moisture pick-up at higher humidities ([1]; typically up to 95% RH) | stability at accelerated conditions ([2]; 30° C./79% RH or 40° C./75% RH for up to 6 months) | stability ([2]; drug substance by itself, ambient temperature and humidity) | compactibility in the solid dosage form [3] | stability of hydrate obtained by moistening the drug substance ([2]; no excipient, during drying generally converted back into the anhydrous form)
CCCCc1ncc(/C=C(\Cc2cccs2)C(=O)O)n1Cc1ccc(C(=O)O)cc1 [Eprosartan, (E)-α-[2-n-butyl-1-[(4-carboxyphenyl)methyl]-1H-imidazol-5-yl]methylene-2-thiophenepropionic acid monomethanesulfonate] | converts to the hydrated form | does not pick up moisture | stable | stable | – | –
CCCCc1ncc(/C=C(\Cc2cccs2)C(=O)O)n1Cc1ccc(C(=O)O)cc1.CS(=O)(=O)O.O.O [dihydrate, (E)-α-[2-n-butyl-1-[(4-carboxyphenyl)methyl]-1H-imidazol-5-yl]methylene-2-thiophenepropionic acid monomethanesulfonate dihydrate] | – | – | – | – | more compactible | not stable
